# Where “and” joins values, the source holds several entries; their conditions need not be identical. Identical values can stand only once. Like-named read-outs stand apart in the source and are kept apart here.
# Experiments:
# mice [1] = assay: Spontaneous locomotor activity; format: in vivo
# Procedure: Photoresistor actometers (Ugo Basile, Italy) connected to a counter for the recording of light-beam interruptions were used to investigate the effect of the compound on locomotor activity in mice. Locomotor activity was counted as the number of the light-beam crossing. It was recorded individually for each animal. After administration of the tested compound, each mouse was placed separately in a cage for 30 min habituation period. After that time, the parameter was measured for 1 min and 5 min (i.e., time equal to the observation period in four plate test and elevated plus maze test, respectively). The cages were sanitized with 70% ethanol after each mouse.
# mice [2] = assay: Four plate test after pretreatment with pCPA, WAY-100635 or AMPT; format: in vivo
# Procedure: (§1) Mice were placed individually in the four plate apparatus connected to the power source. After a 15 s of habituation period, each mouse crossing from one plate to another (two limbs on one plate, two on another) was punished by an electric shock (0.8 mA, 0.5 s). If the mouse continued running, it received no new shock for the following 3 s. The number of punished crossings was calculated during the 60 s of the test.
# We performed the four plate test 30 min after the administration.
# Control group received vehicle (1% Tween). […] We performed the four plate test 30 min after the compound administration.
# serotonin levels = system: serotonin levels; set-up: method as in Imaizumi et al. (1996); conditions: 3-day treatment with pCPA 200 mg/kg; ref Imaizumi et al. (1996); cited from earlier work
# mice [3] = assay: Four plate test; format: in vivo
# Procedure: as §1
# mice [4] = assay: Elevated plus maze test; format: in vivo
# D2 receptor = D2 receptor (Homo sapiens, UniProt P14416); assay: cell-based
# Procedure: (§2) Serial dilutions were prepared in 96-well microplate in appropriate dilution buffer (HBSS or medium) with 0.1% BSA added, and 8–10 concentrations were tested in duplicates. At least two independent experiments were performed for each type of method. Assays were done according to manufacturer’s protocols.
# GABAA receptor = conditions: read-out: GABAA receptors Ki ± SEM; rat cerebral cortex, [3H]-muscimol 1 nM
# Procedure: The final incubation mixture (total volume 250 μl) consisted of a 50 μl solution of the test compound, 50 μl of radioligand and 150 μl of diluted membranes or the tissue suspension. The incubation was terminated by rapid filtration over glass fiber filters GF/B (PerkinElmer, United States) using 96-well FilterMate Harvester (PerkinElmer, United States). Five rapid washes were performed with ice-cold 50 mM Tris–HCl buffer (pH 7.4 or 7.6). […] Radioligand binding data were analyzed using iterative curve fitting routines GraphPad Prism 5.0 (GraphPad Software). […] At least two independent experiments were performed for each assay.
# 5-HT1A receptor [5] = biological target: T1, 5-HT1A receptor (Homo sapiens, UniProt P08908); set-up: expressed in transfected cells; host or cells: CHO (CHO-5HT1A); method as in Kubacka et al., 2016; conditions: 5-HT1A Ca2+ assay, ref Kubacka et al., 2016, cited from earlier work
# T1 sequence (P08908 1-422): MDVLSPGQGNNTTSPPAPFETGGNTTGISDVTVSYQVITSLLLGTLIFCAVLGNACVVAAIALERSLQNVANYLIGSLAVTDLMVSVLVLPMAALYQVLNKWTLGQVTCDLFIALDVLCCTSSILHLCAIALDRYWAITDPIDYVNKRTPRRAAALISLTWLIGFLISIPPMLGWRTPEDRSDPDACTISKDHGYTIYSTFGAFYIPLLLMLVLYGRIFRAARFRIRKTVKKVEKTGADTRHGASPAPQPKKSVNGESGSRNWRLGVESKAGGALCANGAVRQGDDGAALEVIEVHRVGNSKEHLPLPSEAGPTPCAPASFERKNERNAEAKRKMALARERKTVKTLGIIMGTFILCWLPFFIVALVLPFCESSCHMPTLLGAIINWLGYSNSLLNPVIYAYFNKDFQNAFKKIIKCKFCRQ
# 5-HT1A receptor [6] = biological target: T1, 5-HT1A receptor; assay: Tango LiveBLAzer β-arrestin recruitment assay, HTR1A-bla U2OS cells; conditions: 5-HT1A ß-arrestin assay
# [7] = biological target: T2, human serotonin 5-HT1A receptor (Homo sapiens, UniProt P08908); assay: cAMP assay (TR-FRET), CHO-K1 cells; conditions: 5-HT1A cAMP assay
# T2 sequence (P08908 1-422): T1 sequence (P08908 1-422)
# 5-HT1A receptor [8] = biological target: T1, 5-HT1A receptor; assay: SureFire ERK-phosphorylation AlphaLISA assay, CHO-5HT1A cells; conditions: 5-HT1A pERK1/2 assay
# Procedure: as §2
# 5-HT2A receptor = 5-HT2A receptor (Homo sapiens, UniProt P28223); format: cell-based
# Procedure: as §2
# [9] = antagonist mode, serotonin EC80 (300 nM)
# [10] = antagonist mode, serotonin EC80 (120 nM)
# [11] = antagonist mode, serotonin EC80 (45 nM)
smiles,measurement,setting,value
"N[C@@H](Cc1ccc(Cl)cc1)C(=O)O (racemic) [pCPA, p-Chlorophenylalanine]",Number of crossings ± SEM,"mice [1]; pCPA experiment, pCPA 200 mg/kg",29.4
same,Effect on number of punished crossings,"mice [2]; pCPA alone, 200 mg/kg i.p., three days",did not influence
same,Reduction of serotonin levels in the cortex,serotonin levels,30%
same,Reduction of serotonin levels in the diencephalon,serotonin levels,35%
same,Reduction of serotonin levels in the midbrain,serotonin levels,24%
same,Reduction of serotonin levels in the pons with medulla,serotonin levels,34%
CCCN(CCC)C1CCc2cccc(O)c2C1 (stereo not drawn) [8-OH-DPAT],Increase in the number of punished crossings,"mice [3]; 0.5 mg/kg, 15 min before test (but not 0.25, 1 or 2 mg/kg)",38.2%
same,Increase in time spent in the open arms vs non-treated control,"mice [4]; 2 mg/kg, 15 min before test (but not 0.25, 0.5 or 1 mg/kg)",154.3%
same,Effect on number of open arm entries,"mice [4]; 8-OH-DPAT doses tested up to 2 mg/kg, 15 min before test",no effect
"CC(N)(Cc1ccc(O)cc1)C(=O)O (stereo not drawn) [AMPT, α-methyl-p-tyrosine]",Number of crossings ± SEM,"mice [1]; AMPT experiment, AMPT 100 mg/kg",24.5
same,Effect on number of punished crossings,"mice [2]; AMPT alone, 100 mg/kg i.p.",had no effect
CN1CCc2cccc3c2[C@H]1Cc1ccc(O)c(O)c1-3 [Apomorphine],Emax,D2 receptor; read-out: Agonist mode Emax %,100%
same,Emax,D2 receptor; read-out: Antagonist mode Emax %,1%
"CN1C(=O)CN=C(c2ccccc2)c2cc(Cl)ccc21 [Diazepam, diazepam]",Ki,GABAA receptor,5.6 ± 0.7 nM
same,Increase in number of open arm entries vs non-treated control,"mice [4]; mouse, in vivo",78.5% and 73.9% and 124.6%
same,Increase in time spent in the open arms vs non-treated control,"mice [4]; mouse, in vivo",84.6% and 59.9%
"COc1ccccc1N1CCN(CCCOc2cc(C)ccc2C)CC1.Cl [HBK-17, 1-[(2,5-dimethylphenoxy)propyl]-4-(2-methoxyphenyl)piperazine hydrochloride]",Number of crossings ± SEM,"mice [1]; mouse, in vivo, ip, 5 mg/kg",44.8
CC1CCN(CC[C@H]2CCCN2S(=O)(=O)c2cccc(O)c2)CC1 [SB269970],Increase in the number of punished crossings vs non-treated control,mice [3]; […] i.p. 30 min before test (but not 1.25 or 5 mg/kg),137.5%
COc1ccccc1N1CCN(CC(C(=O)NC(C)(C)C)c2ccccc2)CC1 (stereo not drawn) [WAY-100135],Agonist mode Emax %,5-HT1A receptor [5]; agonist mode,2%
same,Antagonist mode Emax %,5-HT1A receptor [5]; antagonist mode,0%
same,Antagonist mode pIC50,5-HT1A receptor [5]; antagonist mode,8.3
same,Kb,5-HT1A receptor [5]; antagonist mode,0.8 nM
same,Agonist mode Emax %,"5-HT1A receptor [6]; agonist mode, relative to serotonin",1%
same,Antagonist mode Emax %,5-HT1A receptor [6]; [9],5%
same,Antagonist mode pIC50,5-HT1A receptor [6]; [9],8.1
same,Kb,"5-HT1A receptor [6]; read-out: Antagonist mode Kb, antagonist mode, serotonin EC80 (300 nM)",5.9 nM
same,Agonist mode Emax %,"[7]; agonist mode, 10 μM forskolin",2%
same,Antagonist mode Emax %,[7]; [10],8%
same,Antagonist mode pIC50,[7]; [10],7.9
same,Kb,"[7]; read-out: Antagonist mode Kb, antagonist mode, serotonin EC80 (120 nM)",6.4 nM
same,Agonist mode Emax %,5-HT1A receptor [8]; agonist mode,2%
same,Antagonist mode Emax %,5-HT1A receptor [8]; [11],0%
same,Antagonist mode pIC50,5-HT1A receptor [8]; [11],7.90
same,Kb,"5-HT1A receptor [8]; read-out: Antagonist mode Kb, antagonist mode, serotonin EC80 (45 nM)",2.7 nM
COc1ccccc1N1CCN(CCN(C(=O)C2CCCCC2)c2ccccn2)CC1 [WAY-100635],Number of crossings ± SEM,"mice [1]; WAY-100635 experiment, WAY-100635 0.3 mg/kg",27.9
same,Effect on number of punished crossings,"mice [2]; WAY-100635 alone, 0.3 mg/kg s.c.",did not influence
"CC(N)Cc1c[nH]c2ccc(O)cc12 (stereo not drawn) [α-Methylserotonin, α-methylserotonin]",Agonist mode Emax %,5-HT2A receptor; agonist mode,100%
same,Agonist mode pEC50,5-HT2A receptor; agonist mode,8.70
same,Antagonist mode Emax %,5-HT2A receptor; antagonist mode,1%

# Reference: article PMC6209770 (Frontiers in Pharmacology, 2018)
